Legend:
Assay in all cases: relative viability (nuclei count vs DMSO), 5 days (fraction); higher = more cells survive
Sulindac + Luminespib = compound: CC1=C(CC(=O)O)c2cc(F)ccc2/C1=C\c1ccc([S+](C)[O-])cc1 [Sulindac] + CCNC(=O)c1noc(-c2cc(C(C)C)c(O)cc2O)c1-c1ccc(CN2CCOCC2)cc1 [Luminespib] (partner 0.01 µM)
Procedure, shortened: (§1)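 Dosing by pin tool came one day after lung cancer cell lines were seeded in 1536-well plates, using either one drug or a fixed anchor-drug dose plus five library-drug doses (not always all listed) in √10 steps. After 5 days, nuclei were counted on 4× images. Relative viability is treated-well nuclei count divided by vehicle-well nuclei count, and values are medians of duplicate plates.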

[1] = compound: O=c1[nH]cc(F)c(=O)[nH]1 [5-Fluorouracil] + CC(=O)Nc1cccc(-n2c(=O)n(C3CC3)c(=O)c3c(Nc4ccc(I)cc4F)n(C)c(=O)c(C)c32)c1 [Trametinib] (partner 0.02 µM)
Procedure, shortened: as §1

Sulindac + Pictilisib = compound: CC1=C(CC(=O)O)c2cc(F)ccc2/C1=C\c1ccc([S+](C)[O-])cc1 [Sulindac] + CS(=O)(=O)N1CCN(Cc2cc3nc(-c4cccc5[nH]ncc45)nc(N4CCOCC4)c3s2)CC1 [Pictilisib] (partner 1 µM)
Procedure, shortened: as §1

Sulindac + Bortezomib = compound: CC1=C(CC(=O)O)c2cc(F)ccc2/C1=C\c1ccc([S+](C)[O-])cc1 [Sulindac] + CC(C)C[C@H](NC(=O)[C@H](Cc1ccccc1)NC(=O)c1cnccn1)B(O)O [Bortezomib] (partner 0.002 µM)
Procedure, shortened: as §1

Row | Cell Line | relative viability (Sulindac + Luminespib; first compound 0.08 µM) | relative viability (Sulindac + Luminespib; first compound 0.253 µM) | relative viability (Sulindac + Luminespib; first compound 0.8 µM) | relative viability (Sulindac + Luminespib; first compound 2.53 µM) | relative viability (Sulindac + Luminespib; first compound 8 µM) | relative viability ([1]; first compound 0.02 µM) | relative viability ([1]; first compound 0.2 µM) | relative viability ([1]; first compound 0.6325 µM) | relative viability ([1]; first compound 2 µM) | relative viability (Sulindac + Pictilisib; first compound 0.08 µM) | relative viability (Sulindac + Pictilisib; first compound 0.253 µM) | relative viability (Sulindac + Pictilisib; first compound 0.8 µM) | relative viability (Sulindac + Pictilisib; first compound 2.53 µM) | relative viability (Sulindac + Pictilisib; first compound 8 µM) | relative viability (Sulindac + Bortezomib; first compound 0.08 µM) | relative viability (Sulindac + Bortezomib; first compound 0.253 µM) | relative viability (Sulindac + Bortezomib; first compound 2.53 µM) | relative viability (Sulindac + Bortezomib; first compound 8 µM) | relative viability (Sulindac + Bortezomib; first compound 0.8 µM)
1 | NCI-H522 | 1.15 | 1.01 | 1.09 | 1.2 | 1.22 | 0.76 | 0.681 | 0.724 | 0.638 | – | – | – | – | – | – | – | – | – | –
2 | NCI-H1944 | 0.753 | 0.838 | 0.706 | 0.864 | 0.963 | 0.412 | 0.333 | 0.244 | 0.195 | 0.345 | 0.347 | 0.325 | 0.342 | 0.388 | – | – | – | – | –
3 | PC-14 | 0.164 | 0.152 | 0.15 | 0.152 | 0.127 | 0.837 | 0.734 | 0.81 | 0.456 | 0.83 | 0.65 | – | 0.73 | 0.757 | 1.05 | 0.902 | 0.929 | 0.783 | –
4 | NCI-H1650 | 0.201 | 0.197 | – | 0.192 | 0.211 | 0.745 | 0.532 | 0.33 | 0.254 | 0.64 | 0.676 | 0.413 | 0.555 | 0.719 | 0.31 | 0.193 | 0.204 | 0.213 | 0.224
5 | HCC-827 | 0.566 | 0.916 | 0.475 | 0.606 | 0.412 | 0.407 | 0.544 | 0.425 | 0.276 | 0.922 | 1.17 | 0.823 | 0.88 | 1.06 | 1.01 | 1.13 | 1.06 | 1.11 | 0.93
6 | HCC-366 | – | – | – | – | – | 0.332 | 0.238 | 0.14 | 0.0725 | 0.149 | 0.13 | – | 0.0966 | 0.0889 | 1.9 | 1.06 | 1 | 1.33 | 0.306
7 | HARA | 0.731 | 1 | 0.77 | 0.671 | 0.963 | 0.852 | 0.625 | 0.856 | 0.644 | 0.302 | 0.507 | – | 0.374 | 0.452 | 1.2 | 1.09 | 1.14 | 1.44 | –
8 | NCI-H441 | 0.345 | 0.326 | 0.352 | 0.239 | 0.289 | 0.567 | 0.499 | 0.402 | 0.38 | 0.627 | 0.452 | 0.373 | 0.469 | 0.603 | 0.594 | 0.54 | 0.422 | 1.11 | 0.458
9 | LXF-289 | 0.821 | 0.847 | 0.58 | 0.715 | 0.611 | 0.674 | 0.591 | 0.346 | 0.33 | 0.955 | 0.796 | 0.769 | 0.823 | 0.848 | 1.06 | 1.04 | 1.04 | 0.974 | 0.991
10 | SK-LU-1 | 0.193 | 0.204 | 0.175 | 0.202 | 0.215 | 0.458 | 0.598 | 0.435 | 0.464 | 0.582 | 0.592 | – | 0.49 | 0.703 | 1.7 | 1.07 | 0.906 | 1.8 | –
11 | CAL-12T | 0.556 | 0.3 | 0.311 | 0.485 | 0.524 | 0.424 | 0.393 | 0.33 | 0.299 | 0.442 | 0.374 | 0.401 | 0.324 | 0.616 | 0.999 | 1.06 | 0.918 | 1.26 | 0.852
12 | COR-L 105 | 0.677 | 0.66 | 0.724 | 0.793 | 0.792 | 0.458 | 0.505 | 0.408 | 0.393 | 0.392 | 0.36 | 0.36 | 0.338 | 0.489 | 0.819 | 0.939 | 0.724 | 1.09 | 0.626
13 | NCI-H2405 | 0.455 | 0.647 | 0.686 | 0.752 | 0.754 | 0.629 | 0.692 | 0.579 | 0.6 | 0.548 | 0.459 | 0.438 | 0.407 | 0.603 | 1.01 | 1.01 | 0.96 | 1.06 | 0.888
14 | NCI-H2228 | 0.115 | 0.129 | 0.131 | 0.185 | 0.163 | 0.628 | 0.685 | 0.441 | 0.326 | 0.488 | 0.407 | 0.244 | 0.383 | 0.603 | 1.31 | 1.02 | 1.31 | 1.01 | 0.45
15 | PC-3 [JPC-3] | 0.663 | 0.799 | 0.528 | 0.656 | 0.771 | 0.784 | 0.823 | 0.782 | 0.661 | 0.886 | 0.81 | 0.55 | 0.753 | 0.857 | 0.967 | 0.796 | 0.907 | 0.862 | 1.02
16 | SW 1573 | 0.197 | 0.25 | 0.242 | 0.293 | 0.284 | 0.576 | 0.631 | 0.497 | 0.306 | 0.508 | 0.632 | 0.451 | 0.511 | 0.605 | – | 1 | 1.19 | 1.13 | –
17 | A549 | – | – | – | – | – | – | – | – | – | 0.573 | 0.528 | 0.327 | 0.467 | 0.857 | – | – | – | – | –
18 | NCI-H1648 | – | – | – | – | – | 0.467 | 0.405 | 0.466 | 0.306 | – | – | – | – | – | – | – | – | – | –
19 | NCI-H1623 | 0.424 | 0.459 | 0.51 | 0.462 | 0.507 | – | – | – | – | – | – | – | – | – | – | – | – | – | –
20 | NCI-H1666 | 1.04 | 1.03 | 0.955 | 1 | 1.1 | 0.891 | 0.714 | 0.601 | 0.56 | – | 0.442 | 0.318 | 0.392 | 0.56 | – | 0.724 | 0.767 | 0.937 | 0.729
